Laboratory results from PubChem BioAssay AID720495 (Broad Institute, 2013).
Records with an inconclusive call do not appear. The source made the active and inactive calls. No rule for the calls is given here.

Target: Protein AF-9 (Homo sapiens) (UniProt P42568)
Assay: inhibitors of AF4-AF9 protein interaction, dose response, biochemical, cherry-picked samples, plate reader (AID 720495)
Conditions: biochemical protein-protein interaction assay

Chain of Protein AF-9 (Homo sapiens) (P42568 whole entry, looked up): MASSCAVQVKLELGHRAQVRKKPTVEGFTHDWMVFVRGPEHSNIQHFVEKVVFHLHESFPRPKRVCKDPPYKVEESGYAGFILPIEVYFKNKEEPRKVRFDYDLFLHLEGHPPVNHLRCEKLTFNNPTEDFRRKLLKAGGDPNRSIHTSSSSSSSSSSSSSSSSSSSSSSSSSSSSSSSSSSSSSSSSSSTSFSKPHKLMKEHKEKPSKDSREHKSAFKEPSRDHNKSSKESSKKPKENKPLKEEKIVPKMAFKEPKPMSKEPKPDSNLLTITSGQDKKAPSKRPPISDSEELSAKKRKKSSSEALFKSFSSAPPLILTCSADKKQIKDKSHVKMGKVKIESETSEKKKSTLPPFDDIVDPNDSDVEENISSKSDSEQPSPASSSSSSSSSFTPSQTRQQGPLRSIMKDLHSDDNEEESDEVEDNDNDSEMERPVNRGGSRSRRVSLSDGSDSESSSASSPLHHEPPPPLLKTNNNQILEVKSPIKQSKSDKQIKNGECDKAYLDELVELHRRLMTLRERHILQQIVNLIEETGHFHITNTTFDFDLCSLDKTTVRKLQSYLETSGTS

| Compound | AC50 [µM] |
| --- | --- |
| Cc1cc(N=Nc2ccc3ccccc3c2)ccc1O | 9.43 |
| COc1ccc2[nH]c3c(C)c4cc[n+](C)cc4c(C)c3c2c1 | 3.07 |
| CC(=O)c1cccc2c(O)c(C3=Nc4ccccc4C3=O)[nH]c12 | 3.11 |
| CC1(C)CC(Nc2ccc(Nc3ccccc3)cc2)CC(C)(C)N1 | 6.78 |
| CCn1c(-c2ccccc2)csc1=Nc1ccc(O)cc1 | 6.97 |
| c1ccc2c(NCCc3c[nH]c4ccccc34)c3ccccc3nc2c1 | 5.9 |
| CNC[C@H](Cc1ccccc1)NC[C@@H](Cc1cccc2ccccc12)NCCc1ccc(C)cc1 | 10.1 |
| COc1cc(O)c(C(CCN2CCCCC2)c2ccc(N(C)C)cc2)c(OC)c1 (stereo not drawn) | 10.2 |
| CN1\C(=C/C=C/C=C/C=[N+](C)C)C(C)(C)c2ccccc21 | 9.97 |
| COc1ccc(C(CCNCc2ccc(N(C)C)cc2)C(C)C)cc1 (stereo not drawn) | 2.88 |
| COC1=C(Nc2ccc(O)cc2)C(=O)c2ccccc2C1=O | 9.8 |
| CC1NC(=O)NC1CCCCCC(=O)Nc1ccc(F)cc1 (stereo not drawn) | < 0.08 |
| CN1CCN(c2ccc(N)cc2Cl)CC1 | 2.11 |
| CN(C)c1ccc2nc3ccc(=O)cc-3sc2c1 | 11.3 |
| CN(C(=O)c1ccc(NC(=O)Cc2ccc(NC(=O)C3CCN(C(=O)c4ccccc4)CC3)cc2)cc1)C1CC1 | 0.233 |
| C[n+]1c(-c2ccccc2)c2cc(N)ccc2c2ccc(N)cc21 | 9.5 |
| CCN1CCN(c2ccc(N)cc2)CC1 | 1.54 |
| CN(C)c1ccc(C=c2c3ccccc3n3c2c2ccccc2[n+]3C)cc1 | 1.65 |
| Cc1ccc2c(c1)C1CN(C)CCC1N2Sc1ccccc1[N+](=O)[O-] (stereo not drawn) | 5.01 |
| O=C(c1ccc(-c2cc(O)c3ncccc3c2)cc1)N1CCNCC1 | 0.426 |
| O=C(O)CCCNc1cc(N2CCN(C(=O)c3ccco3)CC2)c2noc3c2c1C(=O)c1ccccc1-3 | 10.6 |
| CN(C)c1ccc(/C=C/C=C/c2sc3ccccc3[n+]2C)cc1 | 2.09 |

| Compound | AC50 [µM] |
| --- | --- |
| C#CCOCCOCCOCCNc1nc(N2CCN(C(=O)[C@H]([C@@H](C)CC)n3cc(CCCN=C(N)N)nn3)CC2)nc(N2CCN(C(=O)[C@H](CCCCN)n3cc(CCCC)nn3)CC2)n1 | 8.98 |
| Oc1c(C(c2ccccn2)N2CCCCC2)cc(Cl)c2cccnc12 (stereo not drawn) | 1.84 |
| Cn1c(=O)cc2c3c(c(N4CCCCC4)ccc31)C(=O)c1ccccc1-2 | 8.32 |
| Oc1c(C(c2ccccc2Cl)N2CCCC2)ccc2cccnc12 (stereo not drawn) | 0.995 |
| COc1ccccc1C#Cc1ccc2c(c1)[C@H]1[C@H](CCN1C(=O)c1ccncc1)[C@@H](CO)N2 | 7.63 |
| COc1ccc2[nH]c(C)c(CCNCc3cn(C)c4ccccc34)c2c1 | 6.85 |
| CCN(CC)CCC(c1ccc(N(C)C)cc1)c1c(OC)cc(OC)c2c(-c3ccccc3)cc(=O)oc12 (stereo not drawn) | 3.97 |
| CCN(CC)c1ccc(C(=C2C=CC(=[N+](CC)CC)C=C2)c2ccc(S(=O)(=O)O)cc2S(=O)(=O)[O-])cc1 | 4.29 |
| CN1CCN(CCCCOc2ccccc2C=O)CC1 | 10.6 |
| CN(C)c1ccc(N=C/C=C2/N(C)c3ccccc3C2(C)C)cc1 | 7.5 |
| COc1cccc(CNCCc2c[nH]c3ccccc23)c1OCc1ccccc1 | 11.5 |
| COc1cc(NCCCCCCN)c2ncccc2c1OC | 2.62 |
| CCCN(CC1CC1)c1cc2c(c3c1ccn3C)C1CCC2C1 (stereo not drawn) | 7.79 |
| NC(=NCCCCCCN=C(N)/N=C(\N)Nc1ccc(Cl)cc1)/N=C(\N)Nc1ccc(Cl)cc1 | 5.27 |
| CN1CCN(/N=C/c2ccc(-c3ccc([N+](=O)[O-])cc3Cl)o2)CC1 | 9.35 |
| CN(C)c1cc2c3ccccc3n(C)c2cc1N | 1.08 |
| COc1cc(N(C)C)ccc1C=c1c2ccccc2n2c1cc(-c1ccccc1)[n+]2C | 1.88 |
| CCN1/C(=C/C(C)=C/c2sc3ccccc3[n+]2CC)Sc2ccccc21 | 5.6 |
| NC(N)=N/N=C/c1cn(-c2ccccc2)nc1-c1cccs1 | 3.92 |
| COc1cc(OC)c2c(-c3ccccc3)cc(=O)oc2c1C(CCN1CCCCC1)c1ccc2c(c1)OCO2 (stereo not drawn) | 1.08 |
| CCC[C@@H](CN1CCC[C@H]1CN1C(N)=NC[C@@H]1Cc1ccccc1)N1C[C@@H](Cc2ccccc2)N(CCc2ccc(Cl)c(Cl)c2)C1=N | 5.41 |
| C#CCOCCOCCOCCNc1nc(N2CCN(C(=O)[C@H](CCCCN)n3cc(CCCC)nn3)CC2)nc(N2CCN(C(=O)[C@H](CCCCN)n3cc(CCCC)nn3)CC2)n1 | 11.3 |

Same assay, conditions: biochemical protein-protein interaction assay, at 10 µM (top of the series)

| Compound | activity change, negative = inhibition |
| --- | --- |
| Cc1ccc(-c2cc(-c3ccc(C)cc3)[n+](-c3ccc(C(=O)[O-])cc3)c(-c3ccc(C)cc3)c2)cc1 | inactive |
| COc1ccc(-n2cc(CNCCc3cnc[nH]3)c(-c3cccc(F)c3)n2)cc1 | inactive |
| C(=C\c1ccc2ccccc2n1)/c1ccccc1 | inactive |
| O=C(NC1CCCCC1)C(c1cccs1)N(CCCN1CCOCC1)C(=O)c1ccc(-c2ccccc2)[nH]1 (stereo not drawn) | inactive |
| CN(C)CCCN1c2ccccc2Sc2ccc(Cl)cc21 | inactive |
| CC1C/C(=C/c2cccs2)C(=O)/C(=C/c2cccs2)C1 (stereo not drawn) | inactive |
| CCc1ccc(OCCNc2cc(N3CCNC(C)C3)ccc2[N+](=O)[O-])cc1 (stereo not drawn) | inactive |
| CCN1CCN(c2ccc(N)c(C)c2)CC1 | inactive |
| CN(C)c1ccnc2c[cH-]cc12.[Fe].c1ccc(-[c-]2[c-](-c3ccccc3)[c-](-c3ccccc3)[c-](-c3ccccc3)[c-]2-c2ccccc2)cc1 (stereo not drawn) | inactive |
| CCCCOc1ccc2c(c1)C(=O)c1cc(O)ccc1-2 | inactive |
| Nc1ccccc1Nc1cc(-c2ccccc2)nn1-c1cccc(Cl)c1 | inactive |
| CCN1CCN(Cc2ccc(NC(=O)c3cc(NC(=O)c4nccnc4N)cc(OC)c3)cc2C(F)(F)F)CC1 | inactive |
| Oc1ccccc1C=NCCN1CCN(CCN=Cc2ccccc2O)C1c1ccccc1O (stereo not drawn) | inactive |
| COc1ccc(CN2CCC(N(CCc3ccccc3)Cc3ccccc3)CC2)c(OC)c1 | inactive |
| Cc1cc2c(=Cc3ccc(N(C)C)cc3)c3ccccc3n2[n+]1C | inactive |
| CCOc1ccc(OCCSc2ccc(S(=O)(=O)N3CCN(C)CC3)cn2)cc1 | inactive |
| O=c1c2ccccc2nc(/C=C/c2cccnc2)n1Cc1ccccc1 | inactive |
| CC(C)N1CCN(c2ccc(OC[C@H]3CO[C@](Cn4cncn4)(c4ccc(Cl)cc4Cl)O3)cc2)CC1 | inactive |
| Cc1csc(Nc2ccccc2)[n+]1-c1ccccc1 | inactive |
| COc1ccc(OC)c(C2=NOC(C(=O)Nc3c(C)n(C)n(-c4ccccc4)c3=O)C2)c1 (stereo not drawn) | inactive |
| c1ccc(C2=Nc3c(ccc4ccccc34)C(c3ccncc3)=NN2)cc1 | inactive |
| COc1ccc(C)cc1Nc1n[n+](-c2ccccc2)c(-c2c(Cl)cccc2Cl)s1 | inactive |
| CN(C)c1ccc(C(CNC(=O)c2ccccc2)c2c[nH]c3ccccc23)cc1 (stereo not drawn) | inactive |
| Fc1ccc(C(c2ccc(F)cc2)N2CCN(C/C=C/c3ccccc3)CC2)cc1 | inactive |
| Cc1ccsc1/C=N/N1CCN(Cc2ccccc2)CC1 | inactive |

| Compound | activity change, negative = inhibition |
| --- | --- |
| O=C(NN1C(=O)/C(=C/c2ccc(O)c(O)c2)SC1=S)c1ccccc1 | inactive |
| COc1ccc(N2CCN(c3cc(C)nc4ccc(OC)cc34)CC2)cc1 | inactive |
| Cc1ccc2ccc(C(Nc3cccc(C(F)(F)F)c3)c3cccnc3)c(O)c2n1 (stereo not drawn) | inactive |
| C[C@@H]1ON(C)[C@H]2C[C@H]3c4[nH]c5ccc(-c6ccc7c(c6)OCO7)cc5c4CCN3C[C@@H]12 | inactive |
| Cc1ccc(S(=O)(=O)NC(=O)Nc2ccc(N(C)C)cc2)cc1 | inactive |
| CC(=Nc1ccc(C)cc1C)c1sc2ccccc2c1O | inactive |
| Cc1oc(-c2cccc3ccccc23)nc1CN1CCN(c2ncnc3ccccc23)CC1 | inactive |
| C[C@H](CO)N1C[C@H](C)[C@H](CN(C)CC2CC2)OCCCC[C@H](C)Oc2ccc(NC(=O)Nc3ccc4c(c3)OCO4)cc2C1=O | inactive |
| O=C(N/N=C/c1cc(Cl)cc([N+](=O)[O-])c1O)c1cccc(S(=O)(=O)N2CCOCC2)c1 | inactive |
| Cc1cccc(Nc2cc(C)c3c(O)cccc3n2)c1C | inactive |
| CCOc1cc(CNc2cccc3[nH]c(C)nc23)ccc1OC | inactive |
| COc1ccccc1N1CCN(/N=C/C=C\c2ccccc2[N+](=O)[O-])CC1 | inactive |
| Cc1[nH]n(-c2ccccc2)c(=O)c1N=Nc1c(O)cc(S(=O)(=O)N(C)C)c2ccccc12 | inactive |
| C/C(=N\Nc1nc2ccccc2[nH]1)c1ccc2c(c1)OCO2 | inactive |
| Cc1ccc(Nc2cc(C)nc3c(C)ccc([N+](=O)[O-])c23)cc1 | inactive |
| C#CCOCCOCCOCCNc1nc(N2CCN(C(=O)C([C@@H](C)O)n3cc([C@@H](N)CCCCN)nn3)CC2)nc(N2CCN(C(=O)C([C@@H](C)O)n3cc([C@@H](N)CCCCN)nn3)CC2)n1 (stereo partly drawn) | inactive |
| COc1ccc2ccccc2c1-c1sc(Nc2ccccc2)n[n+]1-c1ccc(F)cc1 | inactive |
| CCOc1ccc(Nc2nc(NCC3CCCO3)c3ccccc3n2)cc1 (stereo not drawn) | inactive |
| O=C(N/N=C/c1sc(N2CCCCC2)nc1-c1cccs1)C1CC1 | inactive |
| Cc1cc(C)cc(OCC(O)CN2CCC(CN3C(=O)c4cccc5cccc(c45)C3=O)CC2)c1 (stereo not drawn) | inactive |
| CC(C)n1ncc2c(C(=O)Nc3ccc(S(N)(=O)=O)cc3)cc(C3CC3)nc21 | inactive |
| Cn1ccc2c(N3CCCCC3)cc3c(c21)C1CCC3C1 (stereo not drawn) | inactive |
| CC(C)C[C@@H](C(=O)NC1CCN(Cc2ccccc2)CC1)N1C(=O)N2CCc3c([nH]c4ccccc34)[C@@]2(C)C1=O | inactive |
| Cn1cc(CN2CCC(C(=O)NC(c3ccc(F)cc3)c3ccc4ccccc4n3)CC2)c2ccccc21 (stereo not drawn) | inactive |
